Test results: paper PMC10672842, “Anti-Trypanosoma cruzi Activity, Mutagenicity, Hepatocytotoxicity and Nitroreductase Enzyme Evaluation of 3-Nitrotriazole, 2-Nitroimidazole and Triazole Derivatives” (Molecules, 2023)
Read-outs that look alike come from different tables or passages of the source.

How the values were obtained:
[1] = tested on: T. cruzi (Tulahuen strain); test: In vitro anti-T. cruzi evaluation in an intracellular model (trypomastigote and amastigote forms, L929 host cells, β-galactosidase readout); assay type: cell-based, Trypanosoma cruzi; conditions: for IC50: Tulahuen strain, intracellular trypomastigote and amastigote forms in L929 fibroblasts, 96 h, read-out: IC50 T. cruzi; for SI: selectivity index, L929 cells vs T. cruzi
Experimental: Derivatives 5–10 were evaluated in vitro against T. cruzi in an intracellular model on the trypomastigote and amastigote forms of the parasite of the Tulahuen strain [20]. This model is interesting because it mimics the life cycle of the parasite, as both clinically relevant forms are present in the environment. The mammalian host cells used were fibroblasts from L929 mice.
This assay was performed as previously described by Buckner et al. (1996) using T. cruzi (Tulahuen strain), which expresses the β-galactosidase gene of Escherichia coli. Infectious trypomastigote forms were obtained by culturing fibroblast monolayers of L929 mice in RPMI-1640 medium (pH 7.2–7.4) without phenol red (Gibco BRL), containing 10% fetal bovine serum and 2 mM glutamine. For the bioassay, 4000 L929 cells in 80 µL of supplemented medium were added to each well of a 96-well microtiter plate. After overnight incubation, 40,000 trypomastigotes in 20 µL were added to the cells and incubated for 2 h. […] The medium was then replaced with compound solutions at 1.0 µg/mL in fresh medium (200 µL), and the plate was incubated for 96 h at 37 °C. After this period, 50 µL of chlorophenol D-galactopyranoside red (500 µM) in 0.5% Nonidet P40 was added to each well, and the plate was incubated for 18 h at 37 °C. After this, the absorbance was measured at 570 nm. Controls with uninfected cells and infected cells treated with benznidazole were performed in parallel. The results are expressed as the percentage of T. cruzi growth inhibition in cells tested with compost compared to infected and untreated cells. The tests were performed in triplicate.

[2] = In vitro cytotoxicity of L929 cells (AlamarBlue); assay type: cell-based, mice; conditions: mouse, four days
Experimental: For this bioassay, 4000 mammalian cells in 200 µL of RPMI-1640 medium (pH 7.2–7.4) (Gibco BRL) plus 10% fetal bovine serum and 2 mM glutamine were added to each well of a 96-well microtiter plate, which was incubated for three days at 37 °C. […] After this period, 20 µL of AlamarBlue^TM was added to each well, and the plate was incubated for another 4–6 h. Then, the absorbance was measured at 570 nm. Controls with cells not treated and treated with benznidazole were performed in parallel, and triplicates were performed on the same plate. The results are expressed as the percent difference in the reduction between treated (CT) and untreated cells (UT) using the following equation:(1) 117.216Abs570 TC−80.586(Abs600 TC)/117.216Abs570 UT−80.586(Abs600 UT) × 100

[3] = tested on: T. cruzi nitroreductase enzyme (TcNTR); test: Kinetic assay with Trypanosoma cruzi nitroreductase enzyme (NADH oxidation); assay type: biochemical; conditions: for Kobs Deriv./Kobs BZN 50 µM: 50 µM derivative
Experimental: To determine a potential mechanism of action, nitroazole derivatives 5, 6, 8 and 9 were evaluated as substrates of the T. cruzi nitroreductase enzyme (TcNTR) and compared to BZN, the reference prodrug (Table 2). The enzymatic activity was measured by monitoring the oxidation of NADH, the first substrate of the enzyme, via spectrophotometric assays. […] At a concentration of 25 µM, derivatives 5 and 8 were metabolized at rates 2.3 and 2.6 times higher than that of BZN, respectively. At 50 µM, the compounds presented metabolism rates 1.6 and 3.0 times higher than that of BZN, respectively.
The protocols for expressing, purifying and conducting kinetic analysis with the recombinant TcNTR enzyme were adapted from the methods originally developed by Shane Wilkinson, with certain modifications.
For the kinetics assays, it was prepared a 200 μL solution which included 50 mM Tris-Base at pH 7.5, with a constant concentration of both NADH (50 μM) and the substances 5, 6, 8, 9 or BZN. Specifically, two distinct fixed concentrations (25 and 50 μM) of the substances 5, 6, 8, 9 or BZN were tested. These prepared mixtures were then incubated for 5 min at room temperature. Subsequently, the reaction was initiated by adding NTR to achieve a final concentration of 10 μg/mL. The reaction rates were monitored using a Hitachi U-2900 spectrophotometer, measuring the consumption of the primary substrate, NADH (λ = 340 nm; ε = 6.220 M^−1 cm^−1), over a 2-min interval. The resulting data curves were analyzed through linear regression using OriginPro 2016 software. To evaluate the reaction rate (Kobs) obtained from the 25 and 50 μM concentrations of each substrate, comparisons were made with the reference values for BZN. Measurement errors were calculated using the formula: Error = Z × σ/√n, where ‘Z’ denotes the critical value, ‘σ’ represents the standard deviation and ‘n’ is the number of test measurements, which were performed at least in triplicate.

T. cruzi = tested on: T. cruzi; parameters: method as in PMID 10602737; conditions: in vitro; read-out: IC50 against T. cruzi; cited from earlier work
[4] = Trypanosoma cruzi, TULAHUEN, L929, 96 h

Compound: O=C(Cn1ccnc1[N+](=O)[O-])c1ccc(F)cc1F [Compound 6, 1-(2,4-Difluorophenyl)-2-(2-nitro-1H-imidazol-1-yl)ethanone]
- IC50 [1, 4]: 90.9 µM
- IC50 [1]: 91 ± 4 µM
- SI [1]: 7
- CC50 at 4 days [2]: 629 ± 61 µM
- Kobs Deriv./Kobs BZN 50 µM ([3]; ratio of mean Kobs to BZN): 0.3
- melting point: 128 to 130 °C

Compound: O=C(Cn1cnc([N+](=O)[O-])n1)c1ccc(F)cc1F [Compound 5, 1-(2,4-Difluorophenyl)-2-(3-nitro-1H-1,2,4-triazol-1-yl)ethanone]
- IC50 [1, 4]: 1.8 ± 0.07 µM
- times more potent against T. cruzi than 6 ([1]; ratio of IC50 T. cruzi to 2-nitroimidazole ketone 6): approximately 50
- SI [1]: 667
- CC50 at 4 days [2]: 1200 ± 0.01 µM
- Kobs Deriv./Kobs BZN 25 µM ([3]; 25 µM derivative, ratio of mean Kobs to BZN): 2.3
- consumption rate by TcNTR, times higher than that of 6 ([3]; 50 µM): 6.6
- Kobs Deriv./Kobs BZN 50 µM ([3]; ratio of mean Kobs to BZN): 1.6
- melting point: 117 to 119 °C

Compound: OC(Cn1cncn1)c1ccc(F)cc1F (centres unmarked) [Compound 10, 1-(2,4-Difluorophenyl)-2-(1H-1,2,4-triazol-1-yl)ethanol]
- IC50 [1, 4]: 120 ± 90 µM
- SI [1]: >27
- CC50 at 4 days [2]: > 3200 µM
- melting point: 119 to 121 °C

Compound: CC[C@@H]([C@H](C)O)n1ncn(-c2ccc(N3CCN(c4ccc(OC[C@@H]5CO[C@@](Cn6cncn6)(c6ccc(F)cc6F)C5)cc4)CC3)cc2)c1=O [posaconazole]
- IC50 (T. cruzi): < 0.001 µM

Compound: O=C(Cn1cncn1)c1ccc(F)cc1F [Compound 7, 1-(2,4-Difluorophenyl)-2-(1H-1,2,4-triazol-1-yl)ethanone]
- IC50 [1, 4]: > 200 µM
